Our source for the EC50, Papp A→B and Papp B→A values is patent US12024507B2, “Compounds as GLP-1R agonists” (Terns Pharmaceuticals, Inc., priority 2021, dated 2024).

For one data set, the target named is T1, human GLP-1R receptor (Homo sapiens, UniProt P43220).
T1 construct: expressed in transfected cells
The data set is described as follows: GLP-1R cell assay (cAMP TR-FRET, low expression CHO-K1_hGLP-1Rlow_clone10 cell line). In kind it is cell-based. Conditions: CHO-K1_hGLP-1Rlow_clone10 cells, relative to control GLP-1 peptide agonist, read-out: GLP1 EC50. The procedure: Stable cell lines expressing high and low GLP-1R surface expression were generated in CHO-K1 cells transfected (Fugene 6) with a puromycin selectable DNA plasmid encoding human GLP-1R receptor (accession number: NM_002062.5) under control of an EF1A promoter. Transfected cells were seeded into 24-well plates (9,000 cells/well) containing complete medium and incubated in a humidified incubator at 37° C. with 5% carbon dioxide. After overnight incubation, medium was replaced with complete medium supplemented with puromycin (6 μg/mL) and refreshed every 2-3 days to select for stably transfected cells. Individual pools of selected cells were expanded prior to analysis for responsiveness to GLP-1 control peptide using a TR-FRET assay to detect cAMP (LANCE Ultra cAMP Assay, Perkin Elmer). Briefly, cells were collected in Versene solution, plated in 384-well plates (1,000 cells/well) and combined with serially diluted GLP-1R control peptide (10 nL) using an acoustic dispenser (ECHO). Plates were incubated for 30 minutes at 25° C. prior to the addition of EU-cAMP tracer (5 μL) and Ulight-anti-cAMP (5 μL) reagents to each well, followed by 15 minutes incubation at 25° C. TR-FRET signal was detected using an EnVision Multimode Plate Reader (excitation=320 nm; emission=615 and 655 nm). Dose-response curves were used to generate EC50 values as a measure of responsiveness to the GLP-1R control peptide. Selected cell lines were monitored for responsiveness over multiple passages to ensure stability. […] Briefly, GLP-1R expression was analyzed by flow cytometry using a fluorescein-labeled Exendin-4 peptide fluorescent probe (FLEX). Cells were harvested in Versene solution and washed 3-times with PBS+0.5% BSA before incubation with FLEX reagent (10 μM) for 2 hours at room temperature. After incubation, cells were washed 3-times in PBS+0.5% BSA before final resuspension in PBS prior to analysis by flow cytometry to measure FLEX mean fluorescence intensity (MFI) as a measure of GLP-1R expression on the cell surface.
For compound testing in the CHO-K1_hGLP-1Rlow_clone10 cell line, cells were seeded in 384-well plates (1,000 cells/well). Test compounds were serially diluted in DMSO (10-point, 3-fold dilution), added to wells using an ECHO dispenser (10 nL/well) and plates were centrifuged for 1 min and agitated for 2 min at room temperature prior to 30-minute incubation at 25° C. After incubation, Eu-cAMP (5 μL) and Ulight-anti-cAMP (5 μL) reagents were added to each well, followed by centrifugation for 1 minute, agitation for 2 minutes at room temperature, and final incubation of the plates at 25° C. for 15 minutes. Plates were read using an EnVision microplate reader (excitation=320 nm; emission=615 and 655 nm). Dose-response curves were generated from duplicate wells based on percent activation calculated relative to a control GLP-1 peptide agonist that was run in parallel. EC50 values were determined by fitting percent activation as a function of compound concentration using the Hill equation (XLfit).
The compounds tested were compound samples prepared according to the General Procedures described in the Examples section.

Data set [1] is described as follows: Passive permeability and efflux ratio in Caco-2 cell monolayers. In kind it is in vitro ADME. Conditions: human, Caco-2, 5 μM, pH 7.4, 120 minutes; for Papp A→B at 120 min, 5 μM: apical to basolateral; for Papp B→A at 120 min, 5 μM: basolateral to apical. As to the method:
Caco-2 cells (clone C2BBe1) were obtained from American Type Culture Collection (Manassas, VA). Cell monolayers were grown to confluence on collagen-coated, microporous membranes in 12-well assay plates. Details of the plates and their certification are shown below. The permeability assay buffer was Hanks' balanced salt solution containing 10 mM HEPES and 15 mM glucose at a pH of 7.4. The buffer in the receiver chamber also contained 1% bovine serum albumin. The dosing solution concentration was 5 μM of test article in the assay buffer. Cell monolayers were dosed on the apical side (A-to-B) or basolateral side (B-to-A) and incubated at 37° C. with 5% CO2 in a humidified incubator. Samples were taken from the donor and receiver chambers at 120 minutes. Each determination was performed in duplicate. The flux of lucifer yellow was also measured post-experimentally for each monolayer to ensure no damage was inflicted to the cell monolayers during the flux period. All samples were assayed by LC-MS/MS using electrospray ionization. The apparent permeability (Papp) and percent recovery were calculated as follows: Papp=(dCr/dt)×Vr/(A×CA) (1) Percent Recovery=100×((Vr×Cr^final)+(Vd×Cd^final))/(Vd×CN) (2), where, dCr/dt is the slope of the cumulative receiver concentration versus time in μM s^−1; Vr is the volume of the receiver compartment in cm^3; Vd is the volume of the donor compartment in cm^3; A is the area of the insert (1.13 cm^2 for 12-well); CA is the average of the nominal dosing concentration and the measured 120-minute donor concentration in μM; CN is the nominal concentration of the dosing solution in μM; Cr^final is the cumulative receiver concentration in μM at the end of the incubation period; Cd^final is the concentration of the donor in μM at the end of the incubation period. Efflux ratio (ER) is defined as Papp (B-to-A)/Papp (A-to-B).

T1 sequence (P43220 24-463): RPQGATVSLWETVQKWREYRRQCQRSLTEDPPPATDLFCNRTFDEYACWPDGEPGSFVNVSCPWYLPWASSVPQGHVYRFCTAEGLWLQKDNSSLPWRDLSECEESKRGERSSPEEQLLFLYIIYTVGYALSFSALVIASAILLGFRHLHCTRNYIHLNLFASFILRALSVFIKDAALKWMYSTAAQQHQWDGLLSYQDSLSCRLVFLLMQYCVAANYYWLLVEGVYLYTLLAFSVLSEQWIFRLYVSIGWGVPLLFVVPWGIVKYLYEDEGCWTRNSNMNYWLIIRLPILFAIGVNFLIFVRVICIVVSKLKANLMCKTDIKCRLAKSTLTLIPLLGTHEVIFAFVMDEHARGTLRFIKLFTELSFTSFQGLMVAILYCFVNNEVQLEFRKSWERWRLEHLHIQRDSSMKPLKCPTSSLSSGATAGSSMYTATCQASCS

As to `N#Cc1ccc(COc2cccc(C3CCN(Cc4nc5ccc(-c6nnn[nH]6)cc5n4C[C@@H]4CCO4)CC3)n2)c(F)c1` [Compound 8], on human GLP-1R receptor, the half-maximal effective concentration (EC50) was 15 nM. Further, in data set [1], the Papp A→B at 120 min, 5 μM was determined as 1.8 ×10⁻⁶ cm/s and the Papp B→A at 120 min, 5 μM was determined as 18.8 ×10⁻⁶ cm/s.

Turning to `N#Cc1ccc(COc2cccc(C3CCN(Cc4nc5ccc(-c6nc(=O)[nH]o6)cc5n4Cc4cncs4)CC3)n2)c(F)c1` [Compound 13, 3-fluoro-4-(((6-(1-((6-(3-oxo-2,3-dihydro-1,2,4-oxadiazol-5-yl)-1-(thiazol-5-ylmethyl)-1H-benzo[d]imidazol-2-yl)methyl)piperidin-4-yl)pyridin-2-yl)oxy)methyl)benzonitrile], the EC50 on human GLP-1R receptor was 25.2 nM. For the same compound, in data set [1], the apical-to-basolateral permeability (Papp A→B) at 120 min, 5 μM is 46.9 ×10⁻⁶ cm/s and the Papp B→A at 120 min, 5 μM stood at 51.1 ×10⁻⁶ cm/s.
